{
  "source": "paper PMC5225203",
  "about": "“Multiparameter toxicity assessment of novel DOPO-derived organophosphorus flame retardants” (Archives of Toxicology, 2016)",
  "key": {"[1]": {"test_system": "3D epidermal in vitro model generated from primary human keratinocytes", "test": "3D epidermal in vitro model", "format": "cell-based", "details": "positive control, 5 %, 15 min", "experimental": "Human primary keratinocytes (PR3D-HPEK-50, CELLnTEC, Switzerland) were grown in flasks in proliferation medium (CNT-PR, CELLnTEC) until subconfluency was reached, after which the cells were seeded into transwell inserts containing polycarbonate membranes with a pore size of 0.4 µm at a density of 3.3 × 10^5 cells/cm^2 and grown for 3 days in CNT-PR until confluency was reached. Differentiation was initiated by the addition of 3D barrier medium (CNT-PR-3D, CELLnTEC) for 18 h to allow development of cell-to-cell adhesion structures. 3D growth and differentiation were induced by complete removal of medium from the upper transwell compartment and replacement of the CNT-PR-3D differentiation medium in the lower compartment. Cells were allowed to differentiate for 11 days with 3 medium changes per week in the lower compartment and direct cell-to-air contact in the top compartment. Flame retardants were suspended at a concentration of 200 mM in PBS containing 5 % DMSO, after which 100 µL of each test compound was applied on top of the epithelial barrier model. […] Cell viability of the epidermal models was assessed by measuring the reduction of resazurin to resorufin (PrestoBlue® Assay). Cell viability values (fluorescence signals) were normalized to the epidermal model thickness. […] Samples were mounted with DPX mounting medium (Sigma-Aldrich) and analyzed by microscopy (Olympus IX 81)."}, "[2]": {"test_system": "ARE-dependent luciferase expression in KeratinoSens cells", "test": "KeratinoSens skin sensitization assay", "format": "cell-based", "details": "positive control", "experimental": "Generation of the stable KeratinoSens™ cell line was previously described in detail (Emter et al. [2010]). KeratinoSens™ cells were maintained in DMEM containing glutamax (Gibco/Invitrogen), 9 % FCS, and 0.5 mg/mL G418. For the experiments, KeratinoSens™ cells were seeded onto 96-well plates at a density of 10,000 cells per well in 125 µL medium without G418. After 24 h, the medium was replaced with 200 µL DMEM containing 1 % FCS and the test compounds. After a 2-day incubation period at 37 °C in an atmosphere containing 5 % CO2, the cells were washed once with PBS and a resazurin reduction assay (PrestoBlue®) was carried out in order to compare the viability of the differently treated groups. Fluorescence intensity was measured at 550 nmex and 590 nmem. After another washing step with PBS, cell lysis was performed using 20 µL/well passive lysis buffer (Promega) for 20 min at room temperature. Luciferase activity was measured by applying 50 µL luciferase substrate automatically to each well and detecting the resulting luminescence. Compounds were considered as skin sensitizers when a statistically significant induction of luciferase activity above a defined threshold of ≥1.5 in the absence of impaired cell viability was observed (Emter et al. [2010]; Natsch et al. [2011])."}, "[3]": {"test_system": "differentiated LUHMES cells", "format": "cell-based, human", "details": "positive control", "experimental": "Suppl. Fig. 10. Migration of mitochondria in neurites. Mitochondrial migration was detected in fully differentiated (day 6 of differentiation, DoD6) mixed LUHMES cultures consisting of 3% eGFP/mito-tRFP-overexpressing LUHMES in 97% unlabeled LUHMES in order to allow tracking of mitochondria in single neurites in an environment of normal LUHMES cell density (Schildknecht et al. 2013, ALTEX 30(4):427-444). Single cell time lapse imaging was performed for a period of 90 s in intervals of 3 s with a Zeiss LSM 780 inverted fluorescence microscope YOKOGAWA CSU-XI spinning disk system using an EVOLVE camera (Carl Zeiss Group, Oberkochen, Germany) equipped with a 5% CO2 /37°C controlled chamber and a 40 x 1.3 NA oil objective. For image analysis, kymographs (graphical representation of spatial position over time) based on the data obtained from single cell time lapse experiments were created using ImageJ Software (NIH, Bethesda, USA). The neurite was manually defined by the segmented line tool. To calculate mitochondrial velocity, diagonal lines were drawn for each moving mitochondrium in the kymograph and analysed by calculating the slope with the macro-plugin Kymo Line ROI, generated by Felix Schöneberger, Bioimaging Center (BIC), University of Konstanz, Germany.\n(1 picture or pasted object on this page, not shown here)"}},
  "data": [
    {"compound": "CCCCCCCCCCCCOS(=O)(=O)[O-].[Na+]", "note": "[SDS, sodium dodecyl sulfate]", "values": [
      {"measurement": "influence on the architecture of the epidermis", "setting": "[1]", "result": "complete disintegration of the stratum corneum and substantial cell death in the stratum spinosum"}
    ]},
    {"compound": "CC(=O)C=Cc1ccccc1", "note": "[benzylidene acetone, reference compound]", "values": [
      {"measurement": "concentration at which luciferase increase is associated with cell death", "setting": "[2]", "result": "> 10", "unit": "µM"}
    ]},
    {"compound": "C[n+]1ccc(-c2ccccc2)cc1", "note": "[MPP^+, reference compound]", "values": [
      {"measurement": "velocity of mitochondrial migration in neurites", "setting": "[3]", "result": "significant decline"}
    ]}
  ]
}
